{"source": "ChEMBL document CHEMBL5365526", "about": "(J Med Chem, 2023)", "key": {"[1]": {"molecular_target": "T1, von Hippel-Lindau disease tumor suppressor/Mitogen-activated protein kinase 7 (Homo sapiens, UniProt Q13164+P40337)", "assay": "PROTAC activity at VHL/ERK5 in human A-375 cells assessed as induction of ERK5 degradation at 200 nM pretreated for 1 hr with E3 ligase inhibitor, MLN4924 followed by incubation with compound for 12 hrs by western blot analysis", "format": "cell-based"}, "[2]": {"molecular_target": "von Hippel-Lindau disease tumor suppressor/Serine/threonine-protein kinase DCLK1 (Homo sapiens) (UniProt O15075+P40337)", "sequence (O15075 whole entry, looked up)": "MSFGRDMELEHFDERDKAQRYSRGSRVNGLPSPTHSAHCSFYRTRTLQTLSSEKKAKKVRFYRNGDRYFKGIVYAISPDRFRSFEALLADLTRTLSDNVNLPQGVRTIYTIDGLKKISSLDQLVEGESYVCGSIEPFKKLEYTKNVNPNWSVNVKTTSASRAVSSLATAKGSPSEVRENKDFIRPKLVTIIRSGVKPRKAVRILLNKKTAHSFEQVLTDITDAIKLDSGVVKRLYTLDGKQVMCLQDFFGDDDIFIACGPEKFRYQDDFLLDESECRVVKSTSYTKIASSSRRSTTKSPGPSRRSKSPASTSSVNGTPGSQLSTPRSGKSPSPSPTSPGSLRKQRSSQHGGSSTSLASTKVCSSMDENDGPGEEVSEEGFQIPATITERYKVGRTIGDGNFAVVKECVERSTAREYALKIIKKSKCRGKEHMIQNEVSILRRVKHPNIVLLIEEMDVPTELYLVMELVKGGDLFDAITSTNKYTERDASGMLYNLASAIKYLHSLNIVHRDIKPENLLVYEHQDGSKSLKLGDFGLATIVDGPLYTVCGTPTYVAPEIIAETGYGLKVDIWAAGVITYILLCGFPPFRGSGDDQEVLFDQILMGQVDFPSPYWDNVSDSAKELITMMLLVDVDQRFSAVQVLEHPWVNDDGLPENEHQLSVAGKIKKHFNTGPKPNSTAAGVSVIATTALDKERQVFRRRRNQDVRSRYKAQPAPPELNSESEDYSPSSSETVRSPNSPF", "sequence (P40337 whole entry, looked up)": "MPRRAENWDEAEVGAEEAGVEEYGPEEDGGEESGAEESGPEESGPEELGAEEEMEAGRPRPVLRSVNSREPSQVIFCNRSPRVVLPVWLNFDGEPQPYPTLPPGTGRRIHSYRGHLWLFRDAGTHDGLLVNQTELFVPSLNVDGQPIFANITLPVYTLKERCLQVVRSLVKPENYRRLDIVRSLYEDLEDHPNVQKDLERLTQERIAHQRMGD", "assay": "PROTAC activity at VHL/DCLK1 in human A-375 cells assessed as induction of DCLK1 degradation at 6 to 500 nM incubated for 12 hrs by western bot analysis", "format": "cell-based", "conditions": "dose 6-500 nM"}, "[3]": {"molecular_target": "T1, von Hippel-Lindau disease tumor suppressor/Mitogen-activated protein kinase 7", "assay": "PROTAC activity at VHL/ERK5 in human A-375 cells assessed as induction of ERK5 degradation at 200 nM incubated for 2 to 4 hrs by western blot analysis", "format": "cell-based", "conditions": "time 2-4 hrs"}, "[4]": {"molecular_target": "T1, von Hippel-Lindau disease tumor suppressor/Mitogen-activated protein kinase 7", "assay": "PROTAC activity at VHL/ERK5 in human HepG2 cells assessed as induction of ERK5 degradation incubated for 12 hrs by western blot analysis", "format": "cell-based"}, "[5]": {"molecular_target": "T1, von Hippel-Lindau disease tumor suppressor/Mitogen-activated protein kinase 7", "assay": "PROTAC activity at VHL/ERK5 in human MDA-MB-231 cells assessed as induction of ERK5 degradation incubated for 12 hrs by western blot analysis", "format": "cell-based"}, "[6]": {"molecular_target": "T1, von Hippel-Lindau disease tumor suppressor/Mitogen-activated protein kinase 7", "assay": "PROTAC activity at VHL/ERK5 in human PC-3 cells assessed as induction of ERK5 degradation incubated for 12 hrs by western blot analysis", "format": "cell-based"}, "[7]": {"molecular_target": "T1, von Hippel-Lindau disease tumor suppressor/Mitogen-activated protein kinase 7", "assay": "PROTAC activity at VHL/ERK5 in human A-375 cells assessed as induction of ERK5 degradation incubated for 12 hrs by western blot analysis", "format": "cell-based"}, "A-375 [8]": {"system": "A-375", "assay": "Effect on vemurafenib-induced antitumor activity against human A-375 cells assessed as reduction in cell viability at 200 nM incubated for 72 hrs by CCK8 assay", "format": "functional, cell-based"}, "HepG2": {"system": "HepG2", "assay": "Antiproliferative activity against human HepG2 cells assessed as reduction in cell viability incubated for 72 hrs by CCK8 assay", "format": "functional, cell-based"}, "A-375 [9]": {"system": "A-375", "assay": "Antiproliferative activity against human A-375 cells assessed as reduction in cell viability incubated for 72 hrs by CCK8 assay", "format": "functional, cell-based"}, "A-375 [10]": {"system": "A-375", "assay": "Effect on trametinib-induced antitumor activity against human A-375 cells assessed as reduction in cell viability at 200 nM incubated for 72 hrs by CCK8 assay", "format": "functional, cell-based"}, "HCT-116 [11]": {"system": "HCT-116", "assay": "Effect on dabrafenib-induced antitumor activity against human HCT-116 cells assessed as reduction in cell viability at 200 nM incubated for 72 hrs by CCK8 assay", "format": "functional, cell-based"}, "HCT-116 [12]": {"system": "HCT-116", "assay": "Effect on mirdametinib-induced antitumor activity against human HCT-116 cells assessed as reduction in cell viability at 200 nM incubated for 72 hrs by CCK8 assay", "format": "functional, cell-based"}, "A-375 [13]": {"system": "A-375", "assay": "Effect on cell migration in human A-375 cells at 0.01 to 1 uM incubated for 24 hrs by crystal violet staining based transwell assay", "format": "functional", "conditions": "dose 0.01-1 µM"}, "[14]": {"molecular_target": "T1, von Hippel-Lindau disease tumor suppressor/Mitogen-activated protein kinase 7", "assay": "PROTAC activity at VHL/ERK5 in human THP-1 cells assessed as decrease in IL-6 level at 0.5 uM incubated for 0.5 hrs followed by incubation with LPS for 24 hrs", "format": "cell-based", "conditions": "time 24.5 hrs"}, "HCT-116 [15]": {"system": "HCT-116", "assay": "Inhibition of M2 macrophage development in human HCT-116 cells assessed as inhibition of cell colony formation at 0.5 uM cultured in specific M2 medium and measured after 7 days in presence of LPS by crystal violet staining based analysis", "format": "functional", "conditions": "time 7.0 day"}, "[16]": {"assay": "Inhibition of M2 macrophage development in PMA-differentiated human THP-1 cells assessed as CD206 surface expression at 0.5 uM incubated for 48 hrs by flow cytometry (reference value: 53.4%)", "format": "functional", "parameters": "scale not given: the % may be the effect or the level left"}, "HCT-116 [17]": {"system": "HCT-116", "assay": "Inhibition of M2 macrophage development in human HCT-116 cells assessed as inhibition of cell colony formation at 0.5 uM cultured in macrophage M0 medium and measured after 7 days in presence of LPS by crystal violet staining based analysis", "format": "functional", "conditions": "time 7.0 day"}, "[18]": {"molecular_target": "T1, von Hippel-Lindau disease tumor suppressor/Mitogen-activated protein kinase 7", "assay": "PROTAC activity at VHL/ERK5 in human NCI-H1975 cells assessed as maximal induction of ERK5 degradation incubated for 12 hrs by western blot analysis relative to control", "format": "cell-based"}, "[19]": {"molecular_target": "T1, von Hippel-Lindau disease tumor suppressor/Mitogen-activated protein kinase 7", "assay": "PROTAC activity at VHL/ERK5 in human PC-3 cells assessed as maximal induction of ERK5 degradation incubated for 12 hrs by western blot analysis relative to control", "format": "cell-based"}, "[20]": {"molecular_target": "T1, von Hippel-Lindau disease tumor suppressor/Mitogen-activated protein kinase 7", "assay": "PROTAC activity at VHL/ERK5 in human HCT-116 cells assessed as maximal induction of ERK5 degradation incubated for 12 hrs by western blot analysis relative to control", "format": "cell-based"}, "[21]": {"molecular_target": "T1, von Hippel-Lindau disease tumor suppressor/Mitogen-activated protein kinase 7", "assay": "PROTAC activity at VHL/ERK5 in human A-375 cells assessed as maximal induction of ERK5 degradation incubated for 12 hrs by western blot analysis relative to control", "format": "cell-based"}}, "note": "Activity calls are given as the source filed them. No cut-off for these calls is given here."}
{"smiles": "COc1cc(N2CCN(CCCCCCC(=O)N[C@H](C(=O)N3C[C@H](O)C[C@H]3C(=O)N[C@@H](C)c3ccc(-c4scnc4C)cc3)C(C)(C)C)CC2)ccc1Nc1ncc2c(n1)N(C)c1ccccc1C(=O)N2C", "values": [{"measurement": "Activity", "setting": "[1]", "value": "inactive"}, {"measurement": "Activity", "setting": "[2]", "value": "inactive"}, {"measurement": "Activity", "setting": "[3]", "value": "Active"}, {"measurement": "DC50", "setting": "[4]", "value": 0.0137, "unit": "µM"}, {"measurement": "DC50", "setting": "[5]", "value": 0.0227, "unit": "µM"}, {"measurement": "DC50", "setting": "[6]", "value": 0.0235, "unit": "µM"}, {"measurement": "DC50", "setting": "[7]", "value": 0.0414, "unit": "µM"}, {"measurement": "Activity", "setting": "A-375 [8]", "value": "inactive"}, {"measurement": "Activity", "setting": "HepG2", "value": "inactive"}, {"measurement": "Activity", "setting": "A-375 [9]", "value": "inactive"}, {"measurement": "Activity", "setting": "A-375 [10]", "value": "inactive"}, {"measurement": "Activity", "setting": "HCT-116 [11]", "value": "inactive"}, {"measurement": "Activity", "setting": "HCT-116 [12]", "value": "inactive"}, {"measurement": "Activity", "setting": "A-375 [13]", "value": "inactive"}, {"measurement": "Activity", "setting": "[14]", "value": "Active"}, {"measurement": "inhibition", "setting": "HCT-116 [15]", "value": "Active"}, {"measurement": "Activity", "setting": "[16]", "value": 41.3, "unit": "%"}, {"measurement": "inhibition", "setting": "HCT-116 [17]", "value": "Active"}, {"measurement": "Activity", "setting": "[18]", "value": 94.7, "unit": "%"}, {"measurement": "Activity", "setting": "[19]", "value": 89.4, "unit": "%"}, {"measurement": "Activity", "setting": "[20]", "value": 88.9, "unit": "%"}, {"measurement": "Activity", "setting": "[21]", "value": 91.4, "unit": "%"}]}
